Reference: the C3SDB collision cross section collection

Details: [M+H]+; instrument: TW

Row | Structure (SMILES) | collision cross section (N2) [Å²]
1 | COc1cc(NS(=O)(=O)c2ccc(N)cc2)nc(OC)n1 [Sulfadimethoxine] | 166
2 | COC(=O)NC(=S)Nc1ccccc1NC(=S)NC(=O)OC [Thiophanate-methyl] | 174.24
3 | C[C@H]1c2cccc(O)c2C(=O)C2=C(O)[C@]3(O)C(=O)C(C(N)=O)=C(O)[C@@H](N(C)C)[C@@H]3[C@@H](O)[C@@H]21 [Doxycycline] | 197.4
4 | CC(C)(C)C(O)(CCc1ccc(Cl)cc1)Cn1cncn1 (centres undefined) [Tebuconazole] | 167.37
5 | Cc1c(Nc2ncccc2C(=O)O)cccc1C(F)(F)F [Flunixin] | 159.1
6 | C=C1C[C@@]23CC[C@H]4[C@@](C)(CCC[C@@]4(C)C(=O)O)[C@@H]2CC[C@]1(O[C@@H]1O[C@H](CO)[C@@H](O)[C@H](O[C@@H]2O[C@H](CO)[C@@H](O)[C@H](O)[C@H]2O)[C@H]1O[C@@H]1O[C@H](CO)[C@@H](O)[C@H](O)[C@H]1O)C3 [Rebaudioside B] | 261.19
7 | CCCCCCCCSC(=O)Oc1cc(Cl)nnc1-c1ccccc1 [Pyridate] | 199.9
8 | CCOP(=S)(OCC)SCS(=O)(=O)C(C)(C)C [Terbufos-sulfone] | 172.88
9 | CC(C)Oc1cccc(NC(=O)c2ccccc2C(F)(F)F)c1 [Flutolanil] | 175.45
10 | O=C(Nc1ccccc1-c1ccc(Cl)cc1)c1cccnc1Cl [Boscalid] | 171.67
11 | C=C1C[C@@]23CC[C@H]4[C@@](C)(CCC[C@@]4(C)C(=O)O[C@@H]4O[C@H](CO)[C@@H](O)[C@H](O)[C@H]4O)[C@@H]2CC[C@]1(O[C@@H]1O[C@H](CO)[C@@H](O)[C@H](O[C@@H]2O[C@H](CO)[C@@H](O)[C@H](O)[C@H]2O)[C@H]1O[C@@H]1O[C@@H](C)[C@H](O)[C@@H](O)[C@H]1O)C3 [Rebaudioside C] | 299.49
12 | CCCN1C[C@H](C)[C@@H](O)[C@](C)(O)[C@@H](CC)OC(=O)[C@H](C)[C@@H](O[C@H]2C[C@@](C)(OC)[C@@H](O)[C@H](C)O2)[C@H](C)[C@@H](O[C@@H]2O[C@H](C)C[C@H](N(C)C)[C@H]2O)[C@](C)(O)C[C@H]1C [Gamithromycin] | 280.6
13 | O=C(NC(=O)c1c(F)cccc1F)Nc1ccc(Cl)cc1 [Diflubenzuron] | 160.98
14 | C=C1C[C@@]23CC[C@H]4[C@@](C)(CCC[C@@]4(C)C(=O)O[C@@H]4O[C@H](CO)[C@@H](O)[C@H](O)[C@H]4O)[C@@H]2CC[C@]1(O[C@@H]1O[C@H](CO)[C@@H](O)[C@H](O[C@@H]2O[C@H](CO)[C@@H](O)[C@H](O)[C@H]2O)[C@H]1O[C@@H]1OC[C@@H](O)[C@H](O)[C@H]1O)C3 [Rebaudioside F] | 293.18
15 | CCCNC[C@]1(O)[C@H](C)O[C@@H](O[C@H]2[C@H](C)[C@@H](O[C@@H]3O[C@H](C)C[C@H](N(C)C)[C@H]3O)[C@](C)(O)C[C@@H](C)CN[C@H](C)[C@@H](O)[C@](C)(O)[C@@H](CC)OC(=O)[C@@H]2C)C[C@@]1(C)OC [Tulathromycin] | 286.4
16 | Nc1ccc(S(=O)(=O)Nc2nccs2)cc1 [Sulfathiazole] | 148.2
17 | CC(C)(C)NCC(O)c1cc(Br)c(N)c(Br)c1 (centres undefined) [Brombuterol] | 167
18 | O=C(CCCN1CCN(c2ccccn2)CC1)c1ccc(F)cc1 [Azaperone] | 180.3
19 | COCC(=O)N(c1c(C)cccc1C)C(C)C(=O)OC (centres undefined) [Metalaxyl] | 159.96
20 | O=C(O)Cc1ccccc1Nc1c(Cl)cccc1Cl [Diclofenac] | 157.2
21 | CC(C)c1ncc([N+](=O)[O-])n1C [Ipronidazole] | 126.1
22 | CC1=NNC(=O)N(/N=C/c2cccnc2)C1 [Pymetrozine] | 150.71

Row | Structure (SMILES) | collision cross section (N2) [Å²]
23 | COc1ccc2cc([C@H](C)C(=O)O)ccc2c1 [Naproxen] | 147.1
24 | CON(C)C(=O)Nc1ccc(Cl)c(Cl)c1 [Linuron] | 149.63
25 | O=C(O)c1cccnc1Nc1cccc(C(F)(F)F)c1 [Niflumic acid] | 156.8
26 | Fc1ccc(cc1)N\3c2cc(c(F)cc2C(=O)C(/C(=O)O)=C/3)N4CCN(C)CC4 [Difloxacine] | 192.3
27 | C[C@H]1C[C@H]2[C@@H]3CCC4=CC(=O)C=C[C@]4(C)[C@@]3(F)[C@@H](O)C[C@]2(C)[C@@]1(O)C(=O)CCl [Clobetasol] | 201.29
28 | COC(=O)C(C)N(C(=O)c1ccco1)c1c(C)cccc1C (centres undefined) [Furalaxyl] | 167.15
29 | CC(C(=O)O)c1ccc(N2Cc3ccccc3C2=O)cc1 (centres undefined) [Indoprofen] | 166.4
30 | CCCCC(O)(Cn1cncn1)c1ccc(Cl)cc1Cl (centres undefined) [Hexaconazole] | 171.26
31 | C[C@]12CC[C@H]3[C@@H](CCC4=C(Cl)C(=O)CC[C@@]43C)[C@@H]1CC[C@@H]2O [Clostebol] | 173.6
32 | C=C1C[C@@]23CC[C@H]4[C@@](C)(CCC[C@@]4(C)C(=O)O[C@@H]4O[C@H](CO)[C@@H](O)[C@H](O)[C@H]4O[C@@H]4O[C@H](CO)[C@@H](O)[C@H](O)[C@H]4O)[C@@H]2CC[C@]1(O[C@@H]1O[C@H](CO)[C@@H](O)[C@H](O)[C@H]1O[C@@H]1O[C@H](CO)[C@@H](O)[C@H](O)[C@H]1O)C3 [Rebaudioside E] | 289.2
33 | CC(Oc1ccc(Oc2ncc(C(F)(F)F)cc2Cl)cc1)C(=O)O (centres undefined) [Haloxyfop] | 179.86
34 | CO/C=C(/C(=O)OC)c1ccccc1COc1cccc(C(F)(F)F)n1 [Picoxystrobin] | 177.5
35 | CC#Cc1cc(C)nc(Nc2ccccc2)n1 [Mepanipyrim] | 152.07
36 | COP(=O)(OC)OC=C(Cl)Cl [Dichlorvos] | 133.07
37 | COP(=O)(OC)OC1=C(Cl)C2C=CCC12 (centres undefined) [Heptenophos] | 144.04
38 | CS(=O)(=O)c1ccc(C(=O)C2C(=O)CCCC2=O)c([N+](=O)[O-])c1 [Mesotrione] | 175.66
39 | Nc1c(Cl)cc(C(O)CNC2CCC(O)CC2)cc1Cl (centres undefined) [Clencyclohexerol] | 164.7
40 | O=C(O)c1c(Cl)ccc2cc(Cl)cnc12 [Quinclorac] | 139.54
41 | CC(Cc1ccc(O)cc1)NCC(O)c1cc(O)cc(O)c1 (centres undefined) [Fenoterol] | 180.4
42 | CC(Oc1ccc(Oc2ccc(C(F)(F)F)cn2)cc1)C(=O)O (centres undefined) [Fluazifop] | 173.47
43 | C[C@]12C=CC(=O)C=C1CC[C@@H]1[C@@H]2C(=O)C[C@@]2(C)[C@H]1CC[C@]2(O)C(=O)CO [Prednisone] | 180.1
44 | N#C/N=C1\SCCN1Cc1ccc(Cl)nc1 [Thiacloprid] | 154.84

Details: [M+2K]2+; instrument: TW; calibrated with phosphatidylcholines (ESI+) and phosphatidylethanolamines (ESI-), doubly charged cardiolipins calibrated with poly-DL-…

Row | collision cross section (N2) [Å²] | Structure (SMILES)
45 | 422.9 | CCCCCC/C=C\CCCCCCCC(=O)OC(COC(=O)CCCCCCCCCCCCCCC)COP(=O)(O)OCC(O)COP(=O)(O)OCC(COC(=O)CCCCCCCCCCCCCCC)OC(=O)CCCCCCC/C=C\CCCCCC (centres undefined) [CL(64:2)]
46 | 425.4 | CCCCCC/C=C\CCCCCCCC(=O)OC(COC(=O)CCCCCCCCCCCCCCC)COP(=O)(O)OCC(O)COP(=O)(O)OCC(COC(=O)CCCCCCCCCCCCCCC)OC(=O)CCCCCCCC1CC1CCCCCC (centres undefined) [CL(65:2)]

Same assay, conditions: [M+H]+; instrument: TW; calibrated with phosphatidylcholines (ESI+) and phosphatidylethanolamines (ESI-), doubly charged cardiolipins calibrated with poly-DL-…

Row | collision cross section (N2) [Å²] | Structure (SMILES)
47 | 269.25 | CCCCCCCCCCCCCCCC(=O)OCC(COP(=O)(O)OCCN)OC(=O)CCCCCCCCCCCCCC (centres undefined) [PE(31:0)]
48 | 214.85 | CCCCCCC1CC1CCCCCCCC(=O)O[C@H](CO)COP(=O)([O-])OCC[NH3+] (some centres undefined) [LPE(0:0/17:1)]
49 | 271.97 | CCCCCC/C=C\CCCCCCCC(=O)OCC(COP(=O)(O)OCCN)OC(=O)CCCCCCC/C=C\CCCCCCCC (centres undefined) [PE(34:2)]

Same assay, conditions: [M+Na]+; instrument: TW; calibrated with phosphatidylcholines (ESI+) and phosphatidylethanolamines (ESI-), doubly charged cardiolipins calibrated with poly-DL-…

Row | collision cross section (N2) [Å²] | Structure (SMILES)
50 | 278.8 | CCCCCCCCCCCCCCCC(=O)OCC(COP(=O)(O)OCC(O)CO)OC(=O)CCCCCCCCCCCCCCC (centres undefined) [PG(32:0)]
51 | 219.32 | CCCCCCC1CC1CCCCCCCC(=O)O[C@H](CO)COP(=O)([O-])OCC[NH3+] (some centres undefined) [LPE(0:0/17:1)]
52 | 281.82 | CCCCCC/C=C\CCCCCCCC(=O)OCC(COP(=O)(O)OCC(O)CO)OC(=O)CCCCCCCC1CC1CCCCCCCC (centres undefined) [PG(35:2)]

Same assay, conditions: [M-2H]2-; instrument: TW; calibrated with phosphatidylcholines (ESI+) and phosphatidylethanolamines (ESI-), doubly charged cardiolipins calibrated with poly-DL-…

Row | collision cross section (N2) [Å²] | Structure (SMILES)
53 | 397 | CCCCCC/C=C\CCCCCCCC(=O)OC(COC(=O)CCCCCCCCCCCCCCC)COP(=O)(O)OCC(O)COP(=O)(O)OCC(COC(=O)CCCCCCCCCCCCCCC)OC(=O)CCCCCCC/C=C\CCCCCC (centres undefined) [CL(64:2)]
54 | 406.81 | CCCCCC/C=C\CCCCCCCC(=O)OCC(COP(=O)(O)OCC(O)COP(=O)(O)OCC(COC(=O)CCCCCCC/C=C/CCCCCCCC)OC(=O)CCCCCCC/C=C\CCCCCC)OC(=O)CCCCCCC/C=C\CCCCCCCC (centres undefined) [CL(68:4)]
55 | 399.77 | CCCCCC/C=C\CCCCCCCC(=O)OC(COC(=O)CCCCCCCCCCCCCCC)COP(=O)(O)OCC(O)COP(=O)(O)OCC(COC(=O)CCCCCCCCCCCCCCC)OC(=O)CCCCCCCC1CC1CCCCCC (centres undefined) [CL(65:2)]

Same assay, conditions: [M-H]-; instrument: TW; calibrated with phosphatidylcholines (ESI+) and phosphatidylethanolamines (ESI-), doubly charged cardiolipins calibrated with poly-DL-…

Row | collision cross section (N2) [Å²] | Structure (SMILES)
56 | 263.91 | CCCCCCCCCCCCCCCC(=O)OCC(COP(=O)(O)OCC(O)CO)OC(=O)CCCCCCCCCCCCCCC (centres undefined) [PG(32:0)]
57 | 221.18 | CCCCCCCCC1CC1CCCCCCCC(=O)OC[C@@H](O)COP(=O)(O)OCC(O)CO (some centres undefined) [LPG(19:1)]
58 | 253.95 | CCCCCCCCCCCCCCCC(=O)OCC(COP(=O)(O)OCCN)OC(=O)CCCCCCCCCCCCCC (centres undefined) [PE(31:0)]
59 | 207.62 | CCCCCCC1CC1CCCCCCCC(=O)O[C@H](CO)COP(=O)([O-])OCC[NH3+] (some centres undefined) [LPE(0:0/17:1)]
60 | 261.72 | CCCCCC/C=C\CCCCCCCC(=O)OCC(COP(=O)(O)OCCN)OC(=O)CCCCCCC/C=C\CCCCCCCC (centres undefined) [PE(34:2)]
61 | 326.79 | CCCCCC/C=C\CCCCCCCC(=O)OC[C@H](COP(=O)(O)OC[C@@H](O)COC(=O)CCCCCCCCCCCCCCC)OC(=O)CCCCCCCC1CC1CCCCCCCC (some centres undefined) [AcylPG(51:2)]
62 | 271.85 | CCCCCC/C=C\CCCCCCCC(=O)OCC(COP(=O)(O)OCC(O)CO)OC(=O)CCCCCCCC1CC1CCCCCCCC (centres undefined) [PG(35:2)]
63 | 333.78 | CCCCCC/C=C\CCCCCCCC(=O)OC[C@H](COP(=O)(O)OC[C@@H](O)COC(=O)CCCCCCCCCCCCCCC)OC(=O)CCCCCCCC1CC1CCCCCCCCCC (some centres undefined) [AcylPG(53:2)]
64 | 315.28 | CCCCCC/C=C\CCCCCCCC(=O)OC[C@H](COP(=O)(O)OC[C@@H](O)COC(=O)CCCCCCCCCCCCCCC)OC(=O)CCCCCCC/C=C\CCCCCC [AcylPG(48:2)]
